Results from patent US7842856B2, “Herbicide resistance gene, compositions and methods” (The Board of Trustees of the University of Illinois, priority 2005, dated 2010).

What was measured:
[1] = tested on: Arabidopsis T1 seeds, PPX2L Susceptible plasmid; assay: T1 seed germination on herbicide-containing medium, PPX2L Susceptible plasmid; format: in vivo, Arabidopsis thaliana; details: for Number of Germinated Seedlings on Imazethapyr: approximately 1000 seeds
Protocol: (§1) Reverse transcription PCR (RT-PCR) products from resistant and sensitive biotypes were used as template for cloning the resistant and sensitive genes through PCR amplifications. These amplifications were performed using the ligation independent cloning (LIC) adapted oligonucleotide primers specific to PPX2L, P1 and P2, and cloned into the LIC site of a plant transformation vector, using techniques known to those skilled in the art. These primers used in these experiments were as follows: P1, […], SEQ ID NO:49; P2, […], SEQ ID NO:50; P3, […], SEQ ID NO:51; P4, […], SEQ ID NO:52; P5, […], SEQ ID NO:53; and P6, […], SEQ ID NO:54. These plant transformation vectors contained an imidazolinone tolerant Arabidopsis AHAS large subunit gene under the control of the actin promoter and octopine synthase terminator, which allowed selection on Pursuit (imazethapyr) for all transformants, especially for selection of lactofen […] transformants. For expression of the resistant and sensitive genes in Arabidopsis, the coding sequences for each resistant or sensitive gene were inserted after the parsley ubiquitin promoter and before the nopaline synthase terminator. Several clones each of susceptible and resistant PPX2L were obtained from different biotype isolates and each was sequenced.
(§2) Three vector plasmids were constructed: VC-MBW101-1, containing the susceptible version of the PPX2L gene (SEQ ID NO:47); VC-MBW102-1, containing the resistant version of the PPX2L gene (SEQ ID NO:25); and VC-MBW103-1, containing the SRS version of the PPX2L gene (SEQ ID NO:45); All three of these plasmids were transformed into Agrobacterium tumefaciens. as follows:
(§3) For the transformation, 6-week-old Arabidopsis plants, which had just started flowering were immersed for 10 seconds into the above-described agrobacterial suspension which had previously been treated with 10 μl Silwett L77 (Crompton S. A., Osi Specialties, CH). The method is described in Clough and Bent. 1998. Plant J. 16:735-743.
(§4) These T1 generation seeds, which represented a collection of a few transformed seeds in a population of untransformed seeds, were sterilized by liquid sterilization (rinsing in a solution of 400 mL of ddH2O+100 mL of bleach+250 uL of 20% SDS, followed by rinsing in sterile distilled water).
(§5) These T1 seeds were put into 0.8% agarose and plated onto MS media with 1% sucrose, Cefotaxmine (500 ug/mL) and benomyl (2 ug/mL). For selection of transformants, these contained either 100 nM Pursuit (imazethapyr), 70 nM Cobra (lactofen) or 125 nM Cobra. Arabidopsis ecotype Columbia-0 (Co10) was also plated as a control on all types of plates and the imidazolinone tolerant mutant csr1-2 was plated on Pursuit plates as a positive control. The seeds were stratified on the plates for three days at 4° C.
(§6) The plates were then incubated in a Percival Scientific (Perry, Iowa) growth chamber at 21-22° C. and 15 hours of light for six days and scored for viable seedlings on the selective plates.
(§7) The numbers of seeds were the raw counts of actual seeds on the selection plates. The numbers of seedlings were the number of green seedlings found on each plate, indicative of resistance to the selective agent (lactofen or imazethapyr). If there were no seedlings, there were no resistant plants. Only the “resistant” forms of PPX2L conferred lactofen tolerance, confirming that the isolated PPX2L coding sequence from the herbicide resistant waterhemp was sufficient to confer the PPO-inhibiting herbicide resistance phenotype on transgenic plants into which the plant expressible sequence was introduced. Plants obtained from the imazethapyr selection indicated the presence of transformed seeds with the sensitive form of PPX2L. Without wishing to be bound by any particular theory, the single seedling on transformation set 5 is believed to have been a stray resistant transformant.

[2] = tested on: Arabidopsis T1 seeds, PPX2L Resistant plasmid; assay: T1 seed germination on herbicide-containing medium, PPX2L Resistant plasmid; format: in vivo, Arabidopsis thaliana; details: for Number of Germinated Seedlings on Imazethapyr: approximately 1000 seeds
Protocol: as §1, §2, §3, §4, §5, §6, §7

[3] = tested on: Arabidopsis T1 seeds, PPX2L "SRS" plasmid; assay: T1 seed germination on herbicide-containing medium, PPX2L SRS plasmid; format: in vivo, Arabidopsis thaliana; details: for Number of Germinated Seedlings on Imazethapyr: approximately 1000 seeds
Protocol: as §1
In addition, a chimeric “SRS” gene (see SEQ ID NO:45), which has the 5′ end of the susceptible coding sequence up to the unique XhoI site, the internal XhoI to DraIII fragment of the resistant coding sequence containing the resistance mutation, and the 3′ end of the susceptible from the unique DraIII site to the stop codon, was produced by amplifying sensitive RT-PCR template with P1 and P3 as well as with P6 and P2. Resistant template was also amplified with P4 and P5. These amplicons were digested with XhoI and DraIII and purified, then ligated. The ligation reaction was cloned into the LIC site of the plant transformation vector, as above.
as §2, §3, §4, §5, §6
The numbers of seeds were the raw counts of actual seeds on the selection plates. The numbers of seedlings were the number of green seedlings found on each plate, indicative of resistance to the selective agent (lactofen or imazethapyr). If there were no seedlings, there were no resistant plants. […]

[4] = tested on: Arabidopsis Columbia-0 (untransformed control); assay: Seed germination on herbicide-containing medium, untransformed control; format: in vivo, Arabidopsis thaliana
Protocol: as §5, §6, §7

[5] = tested on: A. tuberculatus S (susceptible) parent; assay: Herbicide dose-response on whole plants, S parent; format: in vivo, Amaranthus tuberculatus (waterhemp); details: S line

For `CCc1cnc(C2=NC(C)(C(C)C)C(=O)N2)c(C(=O)O)c1` (centres unmarked) [Imazethapyr], the “Number of Germinated Seedlings on Imazethapyr” value (shortened to “Number … on Imazethapyr”) ([1]; transformation set 4-291, 100 nM Pursuit) was 4, the “Number … on Imazethapyr” value ([1]; transformation set 5, 100 nM Pursuit) was 12 and the “Number … on Imazethapyr” value ([2]; transformation set 1, 100 nM Pursuit) was 9. For the same molecule, the “Number … on Imazethapyr” value ([2]; transformation set 2, 100 nM Pursuit) was 9, the “Number … on Imazethapyr” value ([2]; transformation set 3, 100 nM Pursuit) was 6 and the “Number … on Imazethapyr” value ([3]; transformation set 4-390, 100 nM Pursuit) was 10. For the same molecule, the “Number … on Imazethapyr” value ([3]; transformation set 4-414, 100 nM Pursuit) was 11 and the “Number … on Imazethapyr” value ([4]; 100 nM Pursuit, approximately 1000 seeds) was 0.

In the case of `O=C(O)c1cc(Oc2ccc(C(F)(F)F)cc2Cl)ccc1[N+](=O)[O-]` [Acifluorfen, 5-{2-chloro-4-(trifluoromethyl)phenoxy}-2-nitrobezoic acid], the “GR50 (growth reduction by 50%) S” value ([5]; 10 DAT) is reported as 1.6 g ai ha^−1.

For `CCOC(=O)C(C)OC(=O)c1cc(Oc2ccc(C(F)(F)F)cc2Cl)ccc1[N+](=O)[O-]` (racemic) [Lactofen, (±)-2-ethoxy-1-methyl-2-oxoethyl 5-{2-chloro-4-(trifluoromethyl)phenoxy}-2-nitrobenzoate], the “Calculated Number of Germinated Seedlings per 1000 Seeds for both rates of Lactofen” value ([1]; transformation set 4-291) was 0, the “Number of Germinated Seedlings on 70 nM lactofen” value (from here on “Number … on 70 nM lactofen”) ([1]; transformation set 4-291, 500 seeds plated) was 0 and the “Number of Germinated Seedlings on 125 nM Lactofen” value (“Number … on 125 nM Lactofen” below) ([1]; transformation set 4-291, 680 seeds plated) was 0. For the same molecule, the “Calculated Number of Germinated Seedlings per 1000 Seeds for both rates of Lactofen” value ([1]; transformation set 5) was 1, the “Number … on 70 nM lactofen” value ([1]; transformation set 5, 460 seeds plated) was 1 and the “Number … on 125 nM Lactofen” value ([1]; transformation set 5, 764 seeds plated) was 0. For the same molecule, the “Calculated Number of Germinated Seedlings per 1000 Seeds for both rates of Lactofen” value ([2]; transformation set 1) was 7, the “Number … on 125 nM Lactofen” value ([2]; transformation set 1, 560 seeds plated) was 4 and the “Number … on 70 nM lactofen” value ([2]; transformation set 1, 640 seeds plated) was 4. For the same molecule, the “Calculated Number of Germinated Seedlings per 1000 Seeds for both rates of Lactofen” value ([2]; transformation set 2) was 3, the “Number … on 125 nM Lactofen” value ([2]; transformation set 2, 1152 seeds plated) was 4 and the “Number … on 70 nM lactofen” value ([2]; transformation set 2, 1276 seeds plated) was 3. For the same molecule, the “Calculated Number of Germinated Seedlings per 1000 Seeds for both rates of Lactofen” value ([2]; transformation set 3) was 2, the “Number … on 70 nM lactofen” value ([2]; transformation set 3, 980 seeds plated) was 3 and the “Number … on 125 nM Lactofen” value ([2]; transformation set 3, 1664 seeds plated) was 1. For the same molecule, the “Calculated Number of Germinated Seedlings per 1000 Seeds for both rates of Lactofen” value ([3]; transformation set 4-390) was 9, the “Number … on 125 nM Lactofen” value ([3]; transformation set 4-390, 1160 seeds plated) was 6 and the “Number … on 70 nM lactofen” value ([3]; transformation set 4-390, 1176 seeds plated) was 14. For the same molecule, the “Calculated Number of Germinated Seedlings per 1000 Seeds for both rates of Lactofen” value ([3]; transformation set 4-414) was 5, the “Number … on 125 nM Lactofen” value ([3]; transformation set 4-414, 880 seeds plated) was 2 and the “Number … on 70 nM lactofen” value ([3]; transformation set 4-414, 1036 seeds plated) was 7. The “Calculated Number of Germinated Seedlings per 1000 Seeds for both rates of Lactofen” value [4] was 0, the “Number … on 125 nM Lactofen” value ([4]; 600 seeds plated) was 0 and the “Number … on 70 nM lactofen” value ([4]; 884 seeds plated, six days) was 0. The “GR50 (growth reduction by 50%) S” value ([5]; 10 DAT) was 0.2 g ai ha^−1 and the “GR50 (growth reduction by 50%) S” value ([5]; 15 DAT) was 0.4 g ai ha^−1.
